Results on five molecules are retold here after US8067424B2, “Selective inhibitors for cyclin-dependent kinases” (Emory University, priority 2007, dated 2011).

In general, remaining activity refers to the signal under treatment as a percentage of the control signal.

Type in all cases: biochemical
In one assay the target is T1, PKBβ (Homo sapiens, UniProt P31751, S474D).
T1 construct: ΔPH-PKBbeta (S474D) assay: ΔPH-PKBbeta-S474D (5-20 mU diluted)
Nature of the assay: Kinase screen: ΔPH-PKBbeta (S474D) assay. The procedure:
(§1) Generally, the same procedure was used for all assays. Since the total assay volume was 25.5 microliters, 0.5 microliters of inhibitors at 51× assay concentration were added to the plates before any other addition.
(§2) The basic procedure was to add 0.5 microliters inhibitor/control in DMSO to plate. Fifteen microliters of enzyme/substrate/buffer mix were added and incubated for 5 min. Ten microliters MgATP at the relevant concentration were added and incubated for 30 min. The assay was stopped by adding 5 microliters of 3% orthophosphoric acid. The assay was transferred to a p81 filter plate and read in a scintillation counter of 30 sec/well. Note that this assay procedure was not followed for MKK1, which instead involved a two-step assay, and PKC alpha, which required the addition of lipid vesicles.
ΔPH-PKBbeta (S474D) assay: ΔPH-PKBbeta-S474D (5-20 mU diluted in 50 mM Tris pH 7.5, 0.1 mM EGTA, 0.1% b-mercaptoethanol, 1 mg/ml BSA) was assayed against a modified Crosstide peptide ([…]) (SEQ ID NO: 4) in a final volume of 25.5 μl containing 50 mM Tris pH 7.5, 0.05% b-mercaptoethanol, 30 μM substrate peptide, 10 mM magnesium acetate and 0.05 mM [33P-g-ATP] (50-1000 cpm/pmole) and incubated for 30 min at room temperature. Assays were stopped by addition of 5 μl of 0.5 M (3%) orthophosphoric acid and then harvested onto P81 Unifilter plates with a wash buffer of 50 mM orthophosphoric acid.

The next assay has as its target T2, IKKe (Homo sapiens, UniProt Q14164).
T2 construct: DU14231
T2 sequence (Q14164 1-716): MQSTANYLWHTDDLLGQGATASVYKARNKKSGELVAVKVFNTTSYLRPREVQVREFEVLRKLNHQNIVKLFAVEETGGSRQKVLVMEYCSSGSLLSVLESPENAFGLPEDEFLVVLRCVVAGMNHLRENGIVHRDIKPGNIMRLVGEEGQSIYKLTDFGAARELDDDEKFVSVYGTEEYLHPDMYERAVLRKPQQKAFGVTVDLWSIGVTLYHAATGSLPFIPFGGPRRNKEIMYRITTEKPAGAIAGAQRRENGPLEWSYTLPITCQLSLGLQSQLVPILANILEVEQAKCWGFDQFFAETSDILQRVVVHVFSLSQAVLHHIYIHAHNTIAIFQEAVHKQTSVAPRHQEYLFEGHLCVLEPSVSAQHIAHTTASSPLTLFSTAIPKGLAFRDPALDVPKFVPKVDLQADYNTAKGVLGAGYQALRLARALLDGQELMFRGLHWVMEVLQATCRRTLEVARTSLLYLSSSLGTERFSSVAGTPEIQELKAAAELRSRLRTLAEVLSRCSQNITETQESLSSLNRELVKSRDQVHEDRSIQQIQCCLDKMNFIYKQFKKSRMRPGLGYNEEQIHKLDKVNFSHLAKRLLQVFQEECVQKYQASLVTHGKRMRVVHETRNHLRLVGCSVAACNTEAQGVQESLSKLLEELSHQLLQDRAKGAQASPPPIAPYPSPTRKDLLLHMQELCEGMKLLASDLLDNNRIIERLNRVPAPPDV
Description: Kinase screen: IKKe / IKKepsilon (DU14231) assay. Particulars: 10 micromolar compound; for remaining activity at 10 µM: read-out: mean activity remaining (as a percentage of the original activity), IKKe. The procedure: as §1, §2
IKKe assay: 5-20 mU of IKKe (diluted in 50 mM Tris (pH 7.5), 0.1 mM EGTA, 1 mg/ml BSA) was assayed against MBP in a final volume of 25.5 μl containing 50 mM Tris (pH 7.5), 0.1 mM EGTA, 0.33 mg/ml MBP, 10 mM magnesium acetate and 0.05 mM [33P-g-ATP] (500-1000 cpm/pmole) and incubated for 30 mins at room temperature. Assays were stopped by addition of 5 μl of 0.5M (3%) orthophosphoric acid. Assays were harvested onto P81 Unifilter plates using a wash buffer of 50 mM orthophosphoric acid.
IKKepsilon (DU14231) assay: 5-20 mU of IKKepsilon (DU14231)(diluted in 50 mM Tris (pH 7.5), 0.1 mM EGTA, 1 mg/ml BSA) was assayed against MBP in a final volume of 25.5 μl containing 50 mM Tris (pH 7.5), 0.1 mM EGTA, 0.33 mg/ml MBP, 10 mM magnesium acetate and 0.05 mM [33P-g-ATP] (500-1000 cpm/pmole) and incubated for 30 mins at room temperature. Assays were stopped by addition of 5 μl of 0.5M (3%) orthophosphoric acid. Assays were harvested onto P81 Unifilter plates using a wash buffer of 50 mM orthophosphoric acid.

For the next assay, the target named is SYK (Homo sapiens, UniProt P43405). Description: Kinase screen: SYK assay. Particulars: 10 micromolar compound; for remaining activity at 10 µM: read-out: mean activity remaining (as a percentage of the original activity), SYK. The procedure:
as §1, §2
SYK assay: SYK (5-20 mU diluted in 50 mM Tris pH 7.5, 0.1 mM EGTA, 1 mg/ml BSA) was assayed against a substrate peptide (Poly Glut Tyr) in a final volume of 25.5 μl containing 50 mM Tris pH 7.5, 1 mg/ml substrate peptide, 10 mM magnesium acetate and 0.02 mM [33P-g-ATP] (50-1000 cpm/pmole) and incubated for 30 min at room temperature. Assays were stopped by addition of 5 μl of 0.5 M (3%) orthophosphoric acid and then harvested onto P81 Unifilter plates with a wash buffer of 50 mM orthophosphoric acid.

For another assay, the target named is MARK3 (Homo sapiens, UniProt P27448). Nature of the assay: Kinase screen: MARK3 assay. The procedure:
as §1, §2
MARK3 assay: MARK3 (5-20 mU diluted in 50 mM Tris pH 7.5, 0.1 mM EGTA, 0.1% b-mercaptoethanol, 1 mg/ml BSA) was assayed against CHKtide substrate ([…]) (SEQ ID NO: 12) in a final volume of 25.5 μl containing 50 mM Tris pH 7.5, 0.05% b-mercaptoethanol, 300 μM substrate peptide, 10 mM magnesium acetate and 0.005 mM [33P-g-ATP] (50-1000 cpm/pmole) and incubated for 30 min at room temperature. Assays were stopped by addition of 5 μl of 0.5 M (3%) orthophosphoric acid and then harvested onto P81 Unifilter plates with a wash buffer of 50 mM orthophosphoric acid.

Where [1] appears, read: 0.5 h, 10 micromolar compound, read-out: mean activity remaining (as a percentage of the original activity), PKBb.
The mark [2] stands for this setting: 10 micromolar compound, read-out: mean activity remaining (as a percentage of the original activity), MARK 3.

Where two headings read alike, the source gives them in different places.

MARK3, sequence (P27448 whole entry, species assumed): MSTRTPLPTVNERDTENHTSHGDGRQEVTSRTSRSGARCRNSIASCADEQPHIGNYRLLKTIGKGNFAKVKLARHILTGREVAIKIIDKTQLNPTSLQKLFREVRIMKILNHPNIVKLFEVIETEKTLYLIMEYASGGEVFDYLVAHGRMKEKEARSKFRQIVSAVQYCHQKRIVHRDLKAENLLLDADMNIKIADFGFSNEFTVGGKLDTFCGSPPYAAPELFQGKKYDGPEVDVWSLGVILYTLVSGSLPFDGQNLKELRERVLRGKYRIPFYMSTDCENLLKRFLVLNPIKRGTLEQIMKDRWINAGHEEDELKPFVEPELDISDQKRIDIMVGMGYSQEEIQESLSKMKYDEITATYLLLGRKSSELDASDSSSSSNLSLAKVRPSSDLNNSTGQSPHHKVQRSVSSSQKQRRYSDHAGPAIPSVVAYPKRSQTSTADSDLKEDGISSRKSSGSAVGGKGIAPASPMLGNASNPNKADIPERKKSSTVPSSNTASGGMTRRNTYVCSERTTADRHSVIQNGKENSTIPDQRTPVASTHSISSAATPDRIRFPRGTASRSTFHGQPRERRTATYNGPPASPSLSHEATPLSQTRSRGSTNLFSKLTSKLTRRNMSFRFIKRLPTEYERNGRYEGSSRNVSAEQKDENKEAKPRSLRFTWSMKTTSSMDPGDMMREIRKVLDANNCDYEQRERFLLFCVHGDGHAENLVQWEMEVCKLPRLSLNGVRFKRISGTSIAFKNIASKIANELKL
T1 sequence (P31751 120-481 S474D limits assumed, species assumed): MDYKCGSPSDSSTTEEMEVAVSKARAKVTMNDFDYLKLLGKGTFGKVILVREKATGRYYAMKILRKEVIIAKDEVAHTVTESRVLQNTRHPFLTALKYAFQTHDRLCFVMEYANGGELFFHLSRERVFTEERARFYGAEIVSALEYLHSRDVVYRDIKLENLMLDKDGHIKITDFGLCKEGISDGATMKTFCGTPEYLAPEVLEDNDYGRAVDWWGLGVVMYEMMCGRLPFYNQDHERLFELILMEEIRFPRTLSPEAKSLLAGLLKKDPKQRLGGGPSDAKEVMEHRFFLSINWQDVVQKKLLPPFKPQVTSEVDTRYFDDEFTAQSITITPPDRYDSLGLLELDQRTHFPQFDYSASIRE

For `CC[C@H](CO)Nc1cc(NCc2ccccc2)n2ncc(C(C)C)c2n1` [ICEC0067], the remaining activity at 10 µM was found to be 102% on PKBβ (setting [1]), 103% at IKKe, 104% at SYK and 89% on MARK3 (setting [2]).
The like results for `C=C[C@H](CO)Nc1cc(NCc2ccccc2)n2ncc(C(C)C)c2n1` [ICEC0065] were, in that order, 109%, 101%, 104% and 93%.
Turning to `CC(C)c1cnn2c(NCc3ccccc3)cc(N[C@@H](CO)[C@H](O)CO)nc12` [ICEC0318, (3S)-3-(7-(Benzylamino)-3-isopropylpyrazolo[1,5-a]pyrimidin-5-ylamino)butane-1,2,4-triol], the remaining activity at 10 µM on PKBβ (setting [1]) came to 105%; on IKKe it was 94%; at SYK, 120%; on MARK3 (setting [2]), 82%.
Consider `CC(C)c1cnn2c(NCc3ccccc3F)cc(NCCCCCN)nc12` [ICEC-0232], for which the “mean activity remaining (as a percentage of the original activity), PKBb” value at PKBβ (10 micromolar compound) was 76%. In addition, the “mean activity remaining (as a percentage of the original activity), IKKe” value on IKKe was determined as 92%. The “mean activity remaining (as a percentage of the original activity), SYK” value on SYK worked out at 84%. For the same molecule, the “mean activity remaining (as a percentage of the original activity), MARK 3” value on MARK3 (10 micromolar compound) is 96%.
Regarding `CC(C)c1cnn2c(NCc3ccccc3)cc(NCCCCCCCN)nc12` [BS-181], the remaining activity at 10 µM worked out at 81% on PKBβ (PKBβ, 10 μM, read-out: Mean Remaining Enzyme Activity (%)) and 104% at MARK3 (MARK3, 10 μM, read-out: Mean Remaining Enzyme Activity (%)).
